Experimental data taken from publication PMC3967794 (Journal of medicinal chemistry, 2014).

Assays:
[1] = in the presence of NADPH
12-LOX = biological target: T1, 12-LOX (Homo sapiens, UniProt P18054); assay: Steady-state inhibition kinetics; format: biochemical
T1 sequence (P18054 1-663): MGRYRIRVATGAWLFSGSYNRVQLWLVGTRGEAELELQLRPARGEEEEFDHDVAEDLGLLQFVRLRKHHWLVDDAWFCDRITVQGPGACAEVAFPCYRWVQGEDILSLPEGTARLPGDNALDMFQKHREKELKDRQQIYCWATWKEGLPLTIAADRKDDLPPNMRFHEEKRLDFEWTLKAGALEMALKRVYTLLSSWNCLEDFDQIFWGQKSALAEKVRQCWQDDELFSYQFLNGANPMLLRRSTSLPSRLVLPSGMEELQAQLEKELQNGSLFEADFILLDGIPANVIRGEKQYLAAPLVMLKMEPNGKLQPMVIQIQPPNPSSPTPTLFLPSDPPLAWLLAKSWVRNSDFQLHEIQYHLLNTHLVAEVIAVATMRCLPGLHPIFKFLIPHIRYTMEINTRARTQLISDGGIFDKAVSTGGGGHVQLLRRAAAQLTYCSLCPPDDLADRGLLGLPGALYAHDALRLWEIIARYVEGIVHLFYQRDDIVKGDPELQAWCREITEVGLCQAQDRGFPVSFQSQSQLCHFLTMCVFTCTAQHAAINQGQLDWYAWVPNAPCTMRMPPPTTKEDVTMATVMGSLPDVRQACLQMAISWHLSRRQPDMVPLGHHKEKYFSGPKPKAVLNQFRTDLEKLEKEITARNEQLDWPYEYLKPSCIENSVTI

[2] = pH 7.4, 48 h
in vivo = conditions: male, CD1, mouse, po, 30 mg/kg
[3] = biological target: T2, human platelet 12-lipoxygenase (12-LOX) (Homo sapiens, UniProt P18054); assay: Lipoxygenase UV–vis cuvette-based assay, 12-LOX; format: biochemical
T2 sequence (P18054 1-663): T1 sequence (P18054 1-663)

| SMILES | PBS buffer (pH 7.4) solubility (PBS buffer) | 12-LOX inhibitory activity (in words) [3] | other results |
| --- | --- | --- | --- |
| COc1cccc(CNc2ccc(S(=O)(=O)Nc3nc4ccccc4o3)cc2)c1O [Compound 36] | >60 µg/mL | – | microsomal stability T1/2 (rat) [1]: >30 (rat) min; mode of inhibition (12-LOX): mixed inhibitors; PBS buffer (pH 7.4) stability at 48 h [2]: 100% |
| COc1cccc(CNc2ccc(S(=O)(=O)Nc3nc4ccccc4s3)cc2)c1O [Compound 35, N-(Benzo[d]thiazol-2-yl)-4-((2-hydroxy-3-methoxybenzyl)-amino)benzenesulfonamide] | <5 µg/mL | – | concentration at which calcium mobilization is reduced significantly (human platelets): 250 nM; AUC(0-inf) (in vivo): 38 µM·h |
| Nc1ccccc1CNc1ccc(S(=O)(=O)Nc2nccs2)cc1 [Compound 13] | – | negated all 12-LOX inhibitory activity | – |
| O=S(=O)(Nc1nccs1)c1ccc(NCc2ccccc2O)cc1 [Compound 9] | – | complete loss of activity | – |
| O=S(=O)(Nc1nccs1)c1ccc(NCc2ccccc2)cc1 [Compound 8] | – | complete loss of activity | – |
